{
  "source": "ChEMBL document CHEMBL3887007",
  "about": "“Estra-1,3,5(10),16-tetraene-3-carboxamide derivatives, processes for their preparation, pharmaceutical preparations comprising them and their use for preparing medicaments” (2016)",
  "molecular_target": "T1, Aldo-keto reductase family 1 member C3 (Homo sapiens, UniProt P42330)",
  "T1 sequence (P42330 whole entry)": "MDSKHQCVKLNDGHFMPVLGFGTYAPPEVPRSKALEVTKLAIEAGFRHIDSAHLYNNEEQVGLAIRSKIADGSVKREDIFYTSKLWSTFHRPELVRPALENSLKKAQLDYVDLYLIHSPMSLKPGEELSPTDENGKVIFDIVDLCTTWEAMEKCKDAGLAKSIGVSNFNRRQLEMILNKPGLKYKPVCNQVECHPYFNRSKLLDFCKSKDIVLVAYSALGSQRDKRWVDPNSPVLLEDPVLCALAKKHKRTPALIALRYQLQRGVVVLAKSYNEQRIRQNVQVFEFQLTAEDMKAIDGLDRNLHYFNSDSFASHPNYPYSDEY",
  "assay": "Inhibitory Activity Assay: Essentially, the enzyme activity is measured by quantification of the Coumberol from Coumberone (Halim, M., Yee, D. J., and Sames, D., J. AM. CHEM. SOC. 130, 14123-14128 (2008) and Yee, D. J., Balsanek, V., Bauman, D. R., Penning, T. M., and Sames, D., Proc. Natl. Acad. Sci. USA 103, 13304-13309 (2006)). In this test, the increase of the highly fluorescent Coumberol by NADPH⿿(nicotinamide adenine dinucleotide phosphate)-dependent reduction of the non-fluorescent Coumberone by AKR1C3 can be determined.The enzyme used was recombinant human AKR1C3 (Aldo-keto reductase family 1 member C3) (GenBank Accession No. NM_003739). This was expressed in E. coli as GST (glutathione S transferase) fusion protein and purified by glutathione Sepharose affinity chromatography. The GST was removed by digestion with thrombin and subsequent size exclusion chromatography (Dufort, I., Rheault, P., Huang, X F., Soucy, P., and Luu-The, V., Endocrinology 140, 568-574 (1999)). […]",
  "note": "Several values for one entry are separate records, joined by “and”; a condition that tells them apart may be missing. Identical values can stand only once.",
  "data": [
    {"compound": "C[C@]12CC[C@@H]3c4ccc(C(=O)NCC5(C(=O)O)CC5)cc4CC[C@H]3[C@@H]1CC=C2c1cncc(F)c1", "values": [
      {"measurement": "IC50", "result": "9.2 nM and 10.2 nM"}
    ]}
  ]
}
